Laboratory results from US20090012103A1, “SUBSTITUTED HETEROCYCLIC COMPOUNDS” (priority 2007, published 2009).
Where two headings read alike, the source gives them in different places.

Target: wild-type human cardiac sodium channel, hNav1.5 (Homo sapiens, UniProt Q14524)
Assay: Late INa screening assay (late sodium current, PatchXpress whole cell patch clamp)
Assay type: cell-based
Details: read-out: Late INa % blk
Description: The late sodium current (Late INa) and peak sodium current (Peak INa) assays are performed on an automated electrophysiology platform, PatchXpress 7000A (MDS Analytical Technologies, Sunnyvale, Calif.), which uses the whole cell patch clamp technique to measure currents through the cell membrane of up to 16 cells at a time. The assay uses an HEK293 (human embryonic kidney) cell line heterologously expressing the wild-type human cardiac sodium channel, hNav1.5, purchased from Millipore (Billerica, Mass.). No beta subunits were coexpressed with the Na channel alpha subunit. […] Experiments are carried out at 24-27° C.
For both the Late INa and Peak INa assays, series resistance compensation is set to 50% and whole-cell compensation is performed automatically. […] Currents through open sodium channels are automatically recorded and stored in the DataXpress2 database (MDS Analytical Technologies, Sunnyvale, Calif.). Analysis is performed using DataXpress2 analysis software and data are compiled in Excel.
Compound stocks are routinely made in glass vials to 10 mM in dimethyl sulfoxide (DMSO). In some cases, when compounds are not soluble in DMSO, they are made in 100% ethanol. Stocks are sonicated as necessary. The extracellular solution for screening Late INa is composed of: 140 mM NaCl, 4 mM KCl, 1.8 mM CaCl2, 0.75 mM MgCl2, and 5 mM HEPES with pH adjusted to 7.4 using NaOH. The extracellular solution for screening Peak INa is composed of: 20 mM NaCl, 120 mM N-methyl-D glucamine, 4 mM KCl, 1.8 mM CaCl2, 0.75 mM MgCl2, and 5 mM HEPES with pH adjusted to 7.4 using HCl. The intracellular solution used to perfuse the inside of the cells for both the Late INa and Peak INa assays contains: 120 mM CsF, 20 mM CsCl, 5 mM EGTA, 5 mM HEPES and pH adjusted to 7.4 with CsOH. Compounds are diluted in extracellular solution to 10 μM in glass vials and then transferred to glass well plates before robotic addition to the cells. The 0 Na extracellular solution used at the end of each experiment for the Late INa and Peak INa assays to measure baseline current contains: 140 mM N-methyl-D-glucamine; 4 mM KCl; 1.8 mM CaCl2; 0.75 mM MgCl2; 5 mM HEPES and pH was adjusted to 7.4 with HCl.
For the Late INa assay, sodium channels are activated every 10 seconds (0.1 Hz) by depolarizing the cell membrane to −20 mV for 250 milliseconds (ms) from a holding potential of −120 mV.
All compounds are tested to determine their activity in blocking the late sodium current. Late INa current is generated by adding 10 μM Tefluthrin (pyrethroid) to the extracellular solution while recording Na currents. […] For some experiments, 50 nM ATX II (sea anemone toxin), another late INa activator, was used to generate the late component. […] Baseline current in the absence of Na^+ ions is measured at the end of each experiment (after two additions of 0 Na solution-see above) and is used to calculate the percent block by compound.

Sequence of wild-type human cardiac sodium channel, hNav1.5 (Q14524 whole entry): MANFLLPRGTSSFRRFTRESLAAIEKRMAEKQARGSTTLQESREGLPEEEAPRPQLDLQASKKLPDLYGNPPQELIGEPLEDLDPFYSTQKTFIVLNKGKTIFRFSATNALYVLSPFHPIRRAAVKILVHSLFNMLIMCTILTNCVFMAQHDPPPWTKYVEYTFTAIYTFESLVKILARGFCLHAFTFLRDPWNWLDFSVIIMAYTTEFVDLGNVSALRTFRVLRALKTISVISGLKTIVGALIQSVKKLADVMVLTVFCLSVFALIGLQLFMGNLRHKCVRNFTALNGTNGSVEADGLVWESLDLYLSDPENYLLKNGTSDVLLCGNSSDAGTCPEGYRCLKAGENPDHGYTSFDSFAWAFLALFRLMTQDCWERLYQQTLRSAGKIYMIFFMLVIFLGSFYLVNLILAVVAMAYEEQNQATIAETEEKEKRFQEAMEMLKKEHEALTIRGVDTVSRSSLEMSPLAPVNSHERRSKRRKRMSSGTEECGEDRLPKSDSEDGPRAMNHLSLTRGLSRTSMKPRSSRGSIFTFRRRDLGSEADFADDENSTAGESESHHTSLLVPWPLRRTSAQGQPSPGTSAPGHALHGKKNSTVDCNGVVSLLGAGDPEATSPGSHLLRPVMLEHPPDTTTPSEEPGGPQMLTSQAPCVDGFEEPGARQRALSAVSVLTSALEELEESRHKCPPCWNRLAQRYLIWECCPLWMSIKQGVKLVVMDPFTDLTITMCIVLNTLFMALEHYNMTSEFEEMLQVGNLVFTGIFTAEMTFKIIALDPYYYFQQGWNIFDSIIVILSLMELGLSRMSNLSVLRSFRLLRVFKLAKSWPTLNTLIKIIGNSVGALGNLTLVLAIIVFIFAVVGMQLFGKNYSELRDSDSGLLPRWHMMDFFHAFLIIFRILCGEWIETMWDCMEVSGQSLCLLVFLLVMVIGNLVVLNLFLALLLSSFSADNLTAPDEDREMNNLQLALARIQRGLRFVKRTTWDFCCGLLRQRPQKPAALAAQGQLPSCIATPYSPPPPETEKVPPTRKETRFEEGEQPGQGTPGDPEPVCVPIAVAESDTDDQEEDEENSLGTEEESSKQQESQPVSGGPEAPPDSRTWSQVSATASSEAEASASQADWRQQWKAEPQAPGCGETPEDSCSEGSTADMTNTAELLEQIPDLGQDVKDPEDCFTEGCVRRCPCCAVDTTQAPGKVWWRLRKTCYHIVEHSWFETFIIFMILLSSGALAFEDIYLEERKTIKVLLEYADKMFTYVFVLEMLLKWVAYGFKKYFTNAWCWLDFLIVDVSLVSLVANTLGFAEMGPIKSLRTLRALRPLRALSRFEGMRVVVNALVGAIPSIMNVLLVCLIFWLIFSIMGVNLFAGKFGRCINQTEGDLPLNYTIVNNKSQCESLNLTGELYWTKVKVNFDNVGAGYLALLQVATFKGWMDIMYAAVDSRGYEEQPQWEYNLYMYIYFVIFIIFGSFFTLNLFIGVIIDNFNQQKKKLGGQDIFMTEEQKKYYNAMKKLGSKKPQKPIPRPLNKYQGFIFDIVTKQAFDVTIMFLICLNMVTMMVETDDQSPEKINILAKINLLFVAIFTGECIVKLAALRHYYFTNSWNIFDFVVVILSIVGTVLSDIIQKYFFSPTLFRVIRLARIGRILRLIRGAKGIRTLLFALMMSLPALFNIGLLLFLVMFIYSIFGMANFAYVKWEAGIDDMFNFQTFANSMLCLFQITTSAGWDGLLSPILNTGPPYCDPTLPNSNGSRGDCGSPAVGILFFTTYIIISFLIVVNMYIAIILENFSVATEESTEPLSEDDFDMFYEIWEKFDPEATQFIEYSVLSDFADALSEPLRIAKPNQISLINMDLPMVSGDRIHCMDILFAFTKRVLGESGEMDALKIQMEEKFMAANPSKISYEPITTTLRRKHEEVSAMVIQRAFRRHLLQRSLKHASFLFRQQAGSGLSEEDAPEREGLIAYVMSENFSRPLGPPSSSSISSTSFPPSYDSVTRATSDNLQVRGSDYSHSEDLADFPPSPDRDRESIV

Compound `COc1ccc2ccccc2c1C1C(C(=O)O[C@@H](C)c2ccccc2)=C(C)Nc2nnnn21` (stereo partly drawn) [PT-053, (S)-1-phenylethyl 7-(2-methoxynaphthalen-1-yl)-5-methyl-4,7-dihydrotetrazolo[1,5-a]pyrimidine-6-carboxylate] has an inhibition at 10 µM (compound at 10 μM) of 53.6%.
`CC1=C(C(=O)O[C@@H](C)c2ccccc2)C(c2ccc(N(C)C)c3ccccc23)n2nnnc2N1` (stereo partly drawn) [PT-054, (S)-1-phenylethyl 7-(4-(dimethylamino)naphthalen-1-yl)-5-methyl-4,7-dihydrotetrazolo[1,5-a]pyrimidine-6-carboxylate] was tested, and the inhibition at 10 µM (compound at 10 μM) was 72.4%.
Work on `CC1=C(C(=O)O[C@@H](C)c2ccccc2)C(c2cc3ccccc3o2)n2nnnc2N1` (stereo partly drawn) [PT-058, (S)-1-phenylethyl 7-(benzofuran-2-yl)-5-methyl-4,7-dihydrotetrazolo[1,5-a]pyrimidine-6-carboxylate] yielded an inhibition at 10 µM (compound at 10 μM) of 71.4%.
`CC1=C(C(=O)OCc2ccc(-c3nnn[nH]3)cc2)C(c2cccc3ccccc23)n2nnnc2N1` (stereo not shown) [PT-060, 4-(1H-tetrazol-5-yl)benzyl 5-methyl-7-(naphthalen-1-yl)-4,7-dihydrotetrazolo[1,5-a]pyrimidine-6-carboxylate] showed an inhibition at 10 µM (compound at 10 μM) of 5.6%.
`CCC(OC(=O)C1=C(C)Nc2nnnn2C1c1cccc2ccccc12)c1ccccc1` (stereo not shown) [PT-063, 1-phenylpropyl 5-methyl-7-(naphthalen-1-yl)-4,7-dihydrotetrazolo[1,5-a]pyrimidine-6-carboxylate] gave an inhibition at 10 µM (compound at 10 μM) of 47.5%.
In the case of `CC1=C(C(=O)OC(C)(C)c2ccccc2)C(c2cccc3ccccc23)n2nnnc2N1` (stereo not shown) [PT-065, 2-phenylpropan-2-yl 5-methyl-7-(naphthalen-1-yl)-4,7-dihydrotetrazolo[1,5-a]pyrimidine-6-carboxylate], the inhibition at 10 µM (compound at 10 μM) is reported as 59%.
Work on `CC1=C(C(=O)N2CCC(c3ccccc3)CC2)C(c2cccc3ccccc23)n2nnnc2N1` (stereo not shown) [PT-066, (5-methyl-7-(naphthalen-1-yl)-4,7-dihydrotetrazolo[1,5-a]pyrimidin-6-yl)(4-phenylpiperidin-1-yl)methanone] yielded an inhibition at 10 µM (compound at 10 μM) of 22.2%.
With `CC1=C(C(=O)NCc2ccccc2)C(c2cccc3ccccc23)n2nnnc2N1` (stereo not shown) [PT-067, N-benzyl-5-methyl-7-(naphthalen-1-yl)-4,7-dihydrotetrazolo[1,5-a]pyrimidine-6-carboxamide] the inhibition at 10 µM (compound at 10 μM) was 24.4%.
`CC1=C(C(=O)NNC(=O)c2ccccc2)C(c2cccc3ccccc23)n2nnnc2N1` (stereo not shown) [PT-069, N′-benzoyl-5-methyl-7-(naphthalen-1-yl)-4,7-dihydrotetrazolo[1,5-a]pyrimidine-6-carbohydrazide] was tested, and the inhibition at 10 µM (compound at 10 μM) was 11.5%.
Work on `CC1=C(C(=O)N[C@H](C)c2ccccc2)C(c2cccc3ccccc23)n2nnnc2N1` (stereo partly drawn) [PT-070, 5-methyl-7-(naphthalen-1-yl)-N-((R)-1-phenylethyl)-4,7-dihydrotetrazolo[1,5-a]pyrimidine-6-carboxamide] yielded an inhibition at 10 µM (compound at 10 μM) of 9.9%.
With `CC1=C(C(=O)N[C@@H](C)c2ccccc2)C(c2cccc3ccccc23)n2nnnc2N1` (stereo partly drawn) [PT-071, 5-methyl-7-(naphthalen-1-yl)-N-((S)-1-phenylethyl)-4,7-dihydrotetrazolo[1,5-a]pyrimidine-6-carboxamide] the inhibition at 10 µM (compound at 10 μM) was 16.3%.
For `O=C1CCCC2=C1C(c1cccc3ccccc13)n1nnnc1N2` (stereo not shown) [PT-072, 9-(naphthalen-1-yl)-5,6,7,9-tetrahydrotetrazolo[5,1-b]quinazolin-8(4H)-one], the inhibition at 10 µM (compound at 10 μM) was -0.9%.
`CCOC(=O)C1=C(C)Nc2[nH]nc(-c3ccc(C)cc3)c2C1c1cccc2ccccc12` (stereo not shown) [PT-073, ethyl 6-methyl-4-(naphthalen-1-yl)-3-p-tolyl-4,7-dihydro-1H-pyrazolo[3,4-b]pyridine-5-carboxylate] was tested, and the inhibition at 10 µM (compound at 10 μM) was -3.2%.
In the case of `CCOC(=O)C1=C(C)Nc2[nH]ncc2C1c1cccc2ccccc12` (stereo not shown) [PT-075, ethyl 6-methyl-4-(naphthalen-1-yl)-4,7-dihydro-1H-pyrazolo[3,4-b]pyridine-5-carboxylate], the inhibition at 10 µM (compound at 10 μM) is reported as 26.5%.
`CC1=C(C(=O)OCc2ccccc2)C(c2cccc3ccccc23)c2c(-c3cccs3)n[nH]c2N1` (stereo not shown) [PT-076, benzyl 6-methyl-4-(naphthalen-1-yl)-3-(thiophen-2-yl)-4,7-dihydro-1H-pyrazolo[3,4-b]pyridine-5-carboxylate] gave an inhibition at 10 µM (compound at 10 μM) of -4.3%.
Work on `CC1=C(C(=O)OCc2ccccc2)C(c2cccc3ccccc23)c2c(-c3ccc(C)cc3)n[nH]c2N1` (stereo not shown) [PT-077, benzyl 6-methyl-4-(naphthalen-1-yl)-3-p-tolyl-4,7-dihydro-1H-pyrazolo[3,4-b]pyridine-5-carboxylate] yielded an inhibition at 10 µM (compound at 10 μM) of -2.6%.
Work on `Cc1ccc(-c2n[nH]c3c2C(c2cccc4ccccc24)C2=C(COC2=O)N3)cc1` (stereo not shown) [PT-078] yielded an inhibition at 10 µM of 46.3%.
With `O=C1OCC2=C1C(c1cccc3ccccc13)c1c(-c3ccco3)n[nH]c1N2` (stereo not shown) [PT-080, 3-(furan-2-yl)-4-(naphthalen-1-yl)-7,8-dihydro-1H-furo[3,4-e]pyrazolo[3,4-b]pyridin-5(4H)-one] the inhibition at 10 µM was 31.9%.
In the case of `Cc1n[nH]c2c1C(c1cccc3ccccc13)C1=C(COC1=O)N2` (stereo not shown) [PT-081, 3-methyl-4-(naphthalen-1-yl)-7,8-dihydro-1H-furo[3,4-e]pyrazolo[3,4-b]pyridin-5(4H)-one], the inhibition at 10 µM (compound at 10 μM) is reported as 16.6%.
`O=C1OCC2=C1C(c1cccc3ccccc13)c1cnn(-c3ccccc3)c1N2` (stereo not shown) [PT-082, 4-(naphthalen-1-yl)-1-phenyl-7,8-dihydro-1H-furo[3,4-e]pyrazolo[3,4-b]pyridin-5(4H)-one] showed an inhibition at 10 µM (compound at 10 μM) of 43.1%.
Work on `Cc1nn(-c2ccccc2)c2c1C(c1cccc3ccccc13)C1=C(COC1=O)N2` (stereo not shown) [PT-083, 3-methyl-4-(naphthalen-1-yl)-1-phenyl-7,8-dihydro-1H-furo[3,4-e]pyrazolo[3,4-b]pyridin-5(4H)-one] yielded an inhibition at 10 µM (compound at 10 μM) of 30%.
Compound `O=C1OCC2=C1C(c1cccc3ccccc13)c1cn[nH]c1N2` (stereo not shown) [PT-084, 4-(naphthalen-1-yl)-7,8-dihydro-1H-furo[3,4-e]pyrazolo[3,4-b]pyridin-5(4H)-one] has an inhibition at 10 µM (compound at 10 μM) of 16.9%.
Work on `CCOC(=O)C1=C(C)Nc2nccn2C1c1cccc2ccccc12` (stereo not shown) [PT-087, ethyl 7-methyl-5-(naphthalen-1-yl)-5,8-dihydroimidazo[1,2-a]pyrimidine-6-carboxylate] yielded an inhibition at 10 µM (compound at 10 μM) of 16.5%.
In the case of `CCOC(=O)C1=C(C)Nc2c(C#N)cnn2C1c1cccc2ccccc12` (stereo not shown) [PT-091, ethyl 3-cyano-5-methyl-7-(naphthalen-1-yl)-4,7-dihydropyrazolo[1,5-a]pyrimidine-6-carboxylate], the inhibition at 10 µM is reported as 48.4%.
Compound `CCOC(=O)C1=C(C)OC(N)=C(C#N)C1c1ccco1` (stereo not shown) [PT-092, ethyl 6-amino-5-cyano-4-(furan-2-yl)-2-methyl-4H-pyran-3-carboxylate] has an inhibition at 10 µM (compound at 10 μM) of -0.2%.
`N#CC1=C(N)OC2=C(C(=O)CC2)C1c1ccc(Br)cc1` (stereo not shown) [PT-093, 2-amino-4-(4-bromophenyl)-5-oxo-4,5,6,7-tetrahydrocyclopenta[b]pyran-3-carbonitrile] showed an inhibition at 10 µM (compound at 10 μM) of -2.6%.
In the case of `CC1(C)CC(=O)C2=C(C1)OC(N)=C(C#N)C2c1cccc(C(=O)O)c1` (stereo not shown) [PT-098, 3-(2-amino-3-cyano-7,7-dimethyl-5-oxo-5,6,7,8-tetrahydro-4H-chromen-4-yl)benzoic acid], the inhibition at 10 µM (compound at 10 μM) is reported as -27.9%.
For `CCOC(=O)C1=C(C)NC(C)=C(C(=O)OCC)C1c1ccc(C(=O)O)s1` [PT-112, 5-(3,5-bis(ethoxycarbonyl)-2,6-dimethyl-1,4-dihydropyridin-4-yl)thiophene-2-carboxylic acid], the inhibition at 10 µM (compound at 10 μM) was -24.9%.
